Experimental data: US20060063784A1, “Method of using substituted pyrazolo [1,5-a] pyrimidines” (priority 2004, published 2006)
Read-outs that look alike come from different tables or passages of the source.

Test system: 80S14 (p21-deficient) cells
Assay: Cytotoxicity assay using isogenic cell lines: IC50 in 80S14 (p21-deficient) cells, SRB
Format: cell-based, human
Method in brief: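 IC50 is the concentration halving proliferation relative to untreated controls, read from SRB absorbance (560 nm) after TCA fixation. Test agent dilutions (5 pM–50 μM or 170 pg/ml–10 μg/ml) were left on p21-deficient 80S14 cells (12,000/well, pre-incubated overnight) for 5 days at 37 °C.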

[1] = Homo sapiens, 120 h, 80S14 p21-deficient cells, 5 days incubation, SRB, read-out: IC50 for 80SI4
[2] = 80S14 p21-deficient cells, 5 days incubation, SRB, read-out: IC50 for 80SI4
[3] = Homo sapiens, 80S14, 120 h, read-out: IC50 for 80SI4 (uM)

Structure (SMILES)	IC50 [1] [µM]	other results
O=C(CNC(=O)c1ccccc1)Nc1cccc(-c2ccnc3c(C(=O)c4cccs4)cnn23)c1 [Example 135, N-[2-oxo-2-({3-[3-(thien-2-ylcarbonyl)pyrazolo[1,5-a]pyrimidin-7-yl]phenyl]amino)ethyl]benzamide]	1 to 10	–
CCCCCNC(=O)NCC(=O)Nc1cccc(-c2ccnc3c(C(=O)c4cccs4)cnn23)c1 [Example 136, N-2-[(pentylamino)carbonyl]-N-1-{3-[3-(thien-2-ylcarbonyl)pyrazolo[1,5-a]pyrimidin-7-yl]phenyl}gylcinamide]	–	IC50 [2]: 10 to 50 µM
CCNC(=O)NCC(=O)Nc1cccc(-c2ccnc3c(C(=O)c4cccs4)cnn23)c1 [Example 137, N-2-[(ethylamino)carbonyl]-N-1-{3-[3-(thien-2-ylcarbonyl)pyrazolo[1,5-a]pyrimidin-7-yl]phenyl}glycinamide]	–	IC50 [2]: 1 to 10 µM
O=C(CNC(=O)NC1CCCCC1)Nc1cccc(-c2ccnc3c(C(=O)c4cccs4)cnn23)c1 [Example 138, N-2-[(cyclohexylamino)carbonyl]-N1-{3-[3-(thien-2-ylcarbonyl)pyrazolo[1,5-a]pyrimidin-7-yl]phenyl}glycinamide]	–	IC50 [2]: 1 to 10 µM
O=C(CCCl)Nc1cccc(-c2ccnc3c(C(=O)c4cccs4)cnn23)c1 [Example 139, 3-chloro-N-{3-[3-(thien-2-ylcarbonyl)pyrazolo[1,5-a]pyrimidin-7-yl]phenyl}propanamide]	< 1	–
CC(CC(=O)Nc1cccc(-c2ccnc3c(C(=O)c4cccs4)cnn23)c1)CC(C)(C)C (stereo not shown) [Example 140, 3,5,5-trimethyl-N-{3-[3-(thien-2-ylcarbonyl)pyrazolo[1,5-a]pyrimidin-7-yl]phenyl}hexanamide]	< 1	–
CC(CCl)(CCl)C(=O)Nc1cccc(-c2ccnc3c(C(=O)c4cccs4)cnn23)c1 [Example 141, 3-chloro-2-(chloromethyl)-2-methyl-N-{3-[3-(thien-2-ylcarbonyl)pyrazolo[1,5-a]pyrimidin7-yl]phenyl}propanamide]	< 1	–
CCCCCCCCCCC(=O)Nc1cccc(-c2ccnc3c(C(=O)c4cccs4)cnn23)c1 [Example 142, N-{3-[3-(thien-2-ylcarbonyl)pyrazolo[1,5-a]pyrimidin-7-yl]phenyl}undecanamide]	10 to 50	–
CC1(C(=O)Nc2cccc(-c3ccnc4c(C(=O)c5cccs5)cnn34)c2)CCCCC1 [Example 143, 1-methyl-N-{3-[3-(thien-2-ylcarbonyl)pyrazolo[1,5-a]pyrimidin-7-yl]phenyl}cyclohexanecarboxamide]	< 1	–
O=C(Nc1cccc(-c2ccnc3c(C(=O)c4cccs4)cnn23)c1)C(Cl)=C(Cl)Cl [Example 144, 2,3,3-trichloro-N-{3-[3-(thien-2-ylcarbonyl)pyrazolo[1,5-a]pyrimidin-7-yl]phenyl}acrylamide]	< 1	–
CCC(C)C(=O)Nc1cccc(-c2ccnc3c(C(=O)c4cccs4)cnn23)c1 (stereo not shown) [Example 145]	–	IC50 [2]: < 1 µM
O=C(CCC1CCCC1)Nc1cccc(-c2ccnc3c(C(=O)c4cccs4)cnn23)c1 [Example 146, 3-cyclopentyl-N-{3-[3-(thien-2-ylcarbonyl)pyrazolo[1,5-a]pyrimidin-7-yl]phenyl}propanamide]	1 to 10	–
CCCCC(CC)C(=O)Nc1cccc(-c2ccnc3c(C(=O)c4cccs4)cnn23)c1 (stereo not shown) [Example 147, 2-ethyl-N-{3-[3-(thien-2-ylcarbonyl)pyrazolo[1,5-a]pyrimidin-7-yl}phenyl}hexanamide]	1 to 10	–
C/C=C/C(=O)Nc1cccc(-c2ccnc3c(C(=O)c4cccs4)cnn23)c1 [Example 149, (2E)-N-{3-[3-(thien-2-ylcarbonvl)pyrazolo[1,5-a]pyrimidin-7-yl]phenyl}but-2-enamide]	–	IC50 [2]: 1 to 10 µM
CCC(CC)C(=O)Nc1cccc(-c2ccnc3c(C(=O)c4cccs4)cnn23)c1 [Example 150, 2-ethyl-N-{3-[3-(thien-2-ylcarbonyl)pyrazolo[1,5-a]pyrimidin-7-yl]phenyl}butanamide]	–	IC50 [3]: 1 to 10 µM
CCCCCCC(=O)Nc1cccc(-c2ccnc3c(C(=O)c4cccs4)cnn23)c1 [Example 151, N-{3-[3-(thien-2-ylcarbonyl)pyrazolo[1,5-a]pyrimidin-7-yl]phenyl}heptanamide]	1 to 10	–
CCCCCC(=O)Nc1cccc(-c2ccnc3c(C(=O)c4cccs4)cnn23)c1 [Example 153]	–	IC50 [2]: < 1 µM
CCCC(C)C(=O)Nc1cccc(-c2ccnc3c(C(=O)c4cccs4)cnn23)c1 (stereo not shown) [Example 154, 2-methyl-N-{3-[3-(thien-2-ylcarbonyl)pyrazolo[1,5-a]pyrimidin-7-yl]phenyl}pentanamide]	–	IC50 [3]: < 1 µM
CN(C)CCNC(=O)Nc1cccc(-c2ccnc3c(C(=O)c4cccs4)cnn23)c1 [Example 161, N-[2-(dimethylamino)ethyl]-N′-{3-[3-(thien-2-ylcarbonlyl)pyrazolo[1,5-a]pyrimidin-7-yl]phenyl}urea]	–	IC50 [2]: 10 to 50 µM
CN1CCN(C(=O)Nc2cccc(-c3ccnc4c(C(=O)c5cccs5)cnn34)c2)CC1 [Example 166, 4-methyl-N-{3-[3-(thien-2-ylcarbonyl)pyrazolo[1,5-a]pyrimidin-7-yl]phenyl}piperazine-1-carboxamide]	1 to 10	–
CN1CCCN(C(=O)Nc2cccc(-c3ccnc4c(C(=O)c5cccs5)cnn34)c2)CC1 [Example 167, 4-methyl-N-{3-[3-(thien-2-ylcarbonyl)pyrazolo[1,5-a]pyrimidin-7-yl]phenyl}-1,4-diazepane-1-carboxamide]	1 to 10	–
O=C(Nc1cccc(-c2ccnc3c(C(=O)c4cccs4)cnn23)c1)OCCc1ccsc1 [Example 179, 2-thien-3-ylethyl 3-[3-(thien-2-ylcarbonyl)pyrazolo[1,5-a]pyrimidin-7-yl]phenylcarbamate]	1 to 10	–
O=C(Nc1cccc(-c2ccnc3c(C(=O)c4cccs4)cnn23)c1)OCCN1CCCCC1 [Example 180, 2-piperidin-1-ylethyl 3-[3-(thien-2-ylcarbonyl)pyrazolo[1,5-a]pyrimidin-7-yl]phenylcarbamate]	1 to 10	–
O=C(Nc1cccc(-c2ccnc3c(C(=O)c4cccs4)cnn23)c1)OCCN1CCOCC1 [Example 181, 2-morpholin-4-ylethyl 3-[3-(thien-2-ylcarbonyl)pyrazolo[1,5-a]pyrimidin-7-yl]phenylcarbamate]	< 1	–
C=CC(C)OC(=O)Nc1cccc(-c2ccnc3c(C(=O)c4cccs4)cnn23)c1 (stereo not shown) [Example 182, 1-methylprop-2-enyl 3-[3-(thien-2-ylcarbonyl)pyrazolo[1,5-a]pyrimidin-7-yl]phenylcarbamate]	–	IC50 [3]: < 1 µM
C#CCC(C)OC(=O)Nc1cccc(-c2ccnc3c(C(=O)c4cccs4)cnn23)c1 (stereo not shown) [Example 183, 1-methylbut-3-ynyl 3-[3-(thien-2-ylcarbonyl)pyrazolo[1,5-a]pyrimidin-7-yl]phenylcarbamate]	< 1	–
CCC(OC(=O)Nc1cccc(-c2ccnc3c(C(=O)c4cccs4)cnn23)c1)C(C)C (stereo not shown) [Example 184, 1-ethyl-2-methylpropyl 3-[3-(thien-2-ylcarbonyl)pyrazolo[1,5-a]pyrimidin-7-yl]phenylcarbamate]	1 to 10	–
CC(C)CC(C)OC(=O)Nc1cccc(-c2ccnc3c(C(=O)c4cccs4)cnn23)c1 (stereo not shown) [Example 185, 1,3-dimethylbutyl3-[3-(thien-2-ylcarbonyl)pyrazolo[1,5-a]pyrimidin-7-yl]phenylcarbamate]	1 to 10	–
